Experimental data as given in patent US20080234300A1, “Pyrimido[5,4-c] Quinoline-2, 4-Diamine Derivatives and Methods of Use Thereof” (WYETH, priority 2007, published 2008).

What follows are compounds tested against T1, PDK-1 (Homo sapiens, UniProt O15530) (assay: PDK-1 kinase inhibition ELISA assay (phosphorylation of His6-tagged SGK1 S422D by PDK-1)). Settings: in vitro ELISA; phosphorylation of His6-tagged SGK1 (S422D) on Thr256 by PDK-1, 20 minutes, chemiluminescent detection.
T1 sequence (O15530 1-556): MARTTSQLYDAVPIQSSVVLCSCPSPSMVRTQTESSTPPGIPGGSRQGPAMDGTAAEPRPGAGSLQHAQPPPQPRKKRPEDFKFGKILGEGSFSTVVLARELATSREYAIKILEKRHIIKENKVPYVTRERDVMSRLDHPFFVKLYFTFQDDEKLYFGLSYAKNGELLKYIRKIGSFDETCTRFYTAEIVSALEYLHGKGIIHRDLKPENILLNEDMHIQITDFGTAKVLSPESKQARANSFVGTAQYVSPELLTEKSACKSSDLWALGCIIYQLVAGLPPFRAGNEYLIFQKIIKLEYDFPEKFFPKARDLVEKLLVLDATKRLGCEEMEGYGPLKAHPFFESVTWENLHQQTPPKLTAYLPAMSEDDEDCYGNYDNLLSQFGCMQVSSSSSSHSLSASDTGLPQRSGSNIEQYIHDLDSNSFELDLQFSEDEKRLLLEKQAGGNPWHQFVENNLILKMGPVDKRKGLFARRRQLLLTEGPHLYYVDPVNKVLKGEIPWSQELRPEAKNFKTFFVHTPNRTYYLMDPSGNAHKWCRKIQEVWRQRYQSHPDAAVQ
Format: biochemical
Protocol: The ability of an illustrative Pyrimido[5,4-c]quinoline-2,4-diamine Derivative to inhibit PDK-1 in vitro can be determined using an ELISA assay as described in Kobayashi et al., Biochem. J. 339:319-328 (1999) and Park et al., EMBO J. 18:3024-3033 (1999).
In an in vitro assay, His6-tagged SGK1 with S422D mutation (formerly Upstate Biotech, now Millipore) on Thr256 is allowed to be phosphorylated by PDK-1 in the presence of a Pyrimido[5,4-c]quinoline-2,4-diamine Derivative. After 20 minutes, the reaction is quenched via the addition of urea. The His6-tagged SGK1 is then bound to 96 well Ni-NTA HisSorb plates (Quiagen, Inc.) and phosphorylated SGK1 is quantitatively detected using rabbit derived anti-phospho SGK antibody (Cell Signaling Technology) as the primary antibody and horseradish peroxidase (HRP)— coupled anti-rabbit antibody (formerly Zymed, now Invitrogen) as the secondary antibody. HRP is then detected using a chemiluminescent substrate (Pierce Chemical Co.).
IC50 values of illustrative Pyrimido[5,4-c]quinoline-2,4-diamine Derivatives, shown in Table 4, are calculated using LSW Data Analysis package add-in for Excel (Microsoft).

SMILES | IC50
COCCOc1cc2ncc3c(N)nc(N4CCC(O)C4)nc3c2cc1OC (stereo not shown) [Compound Ia-6, 1-[4-Amino-9-methoxy-8-(2-methoxyethoxy)pyrimido[5,4-c]quinolin-2-yl]pyrrolidin-3-ol] | 36.3 µM
COc1cc2ncc3c(N)nc(N)nc3c2cc1OC [Ia-1, 8,9-dimethoxypyrimido[5,4-c]quinoline-2,4-diamine] | 12.2 µM
CCOc1cc2ncc3c(N)nc(N)nc3c2cc1OCC [Ia-2, 8,9-diethoxypyrimido[5,4-c]quinoline-2,4-diamine] | 18 µM
CCOc1cc2ncc3c(N)nc(N4CCOCC4)nc3c2cc1OCC [Ia-4, 8,9-diethoxy-2-morpholin-4-ylpyrimido[5,4-c]quinolin-4-amine] | 55.7 µM
COCCOc1cc2ncc3c(N)nc(N4CCOCC4)nc3c2cc1OC [Ia-5, 9-methoxy-8-(2-methoxyethoxy)-2-morpholin-4-ylpyrimido[5,4-c]quinolin-4-amine] | > 200 µM
COCCOc1cc2ncc3c(N)nc(N4CCN(C)CC4)nc3c2cc1OC [Ia-7, 9-methoxy-8-(2-methoxyethoxy)-2-(4-methylpiperazin-1-yl)pyrimido[5,4-c]quinolin-4-amine] | > 200 µM
COCCOc1cc2ncc3c(N)nc(N(C)C)nc3c2cc1OC [Ia-8, 9-methoxy-8-(2-methoxyethoxy)-N2,N2-dimethylpyrimido[5,4-c]quinoline-2,4-diamine] | 9.33 µM
CCNc1nc(N)c2cnc3cc(OCCOC)c(OC)cc3c2n1 [Ia-9, N2-ethyl-9-methoxy-8-(2-methoxyethoxy)pyrimido[5,4-c]quinoline-2,4-diamine] | > 200 µM
COCCOc1cc2ncc3c(N)nc(N4CCC5(CC4)OCCO5)nc3c2cc1OC [Ia-10, 2-(1,4-dioxa-8-azaspiro[4.5]dec-8-yl)-9-methoxy-8-(2-methoxyethoxy)pyrimido[5,4-c]quinolin-4-amine] | 50.5 µM
COCCOc1cc2ncc3c(N)nc(N4CCC(=O)CC4)nc3c2cc1OC [Ia-13, 1-[4-amino-9-methoxy-8-(2-methoxyethoxy)pyrimido[5,4-c]quinolin-2-yl]piperidin-4-one] | > 200 µM
COCCOc1cc2ncc3c(N)nc(N4CCCC4)nc3c2cc1OC [Ia-14, 9-methoxy-8-(2-methoxyethoxy)-2-pyrrolidin-1-ylpyrimido[5,4-c]quinolin-4-amine] | 6.55 µM
COCCOc1cc2ncc3c(N)nc(N4CCC[C@@H]4COC)nc3c2cc1OC [Ia-15, 9-methoxy-8-(2-methoxyethoxy)-2-[(2R)-2-(methoxymethyl)pyrrolidin-1-yl]pyrimido[5,4-c]quinolin-4-amine] | 2.15 µM
COCCOc1cc2ncc3c(N)nc(N4CCC[C@H]4COC)nc3c2cc1OC [Ia-16, 9-methoxy-8-(2-methoxyethoxy)-2-[(2S)-2-(methoxymethyl)pyrrolidin-1-yl]pyrimido[5,4-c]quinolin-4-amine] | 39.6 µM
COCCOc1cc2ncc3c(N)nc(NC4CCCCC4)nc3c2cc1OC [Ia-17, N2-cyclohexyl-9-methoxy-8-(2-methoxyethoxy)pyrimido[5,4-c]quinoline-2,4-diamine] | 5.43 µM
COCCOc1cc2ncc3c(N)nc(N4CCN(c5ccccc5)CC4)nc3c2cc1OC [Ia-18, 9-methoxy-8-(2-methoxyethoxy)-2-(4-phenylpiperazin-1-yl)pyrimido[5,4-c]quinolin-4-amine] | 111 µM
COCCOc1cc2ncc3c(N)nc(N4CCOc5ccccc5C4)nc3c2cc1OC [Ia-20, 2-(2,3-dihydro-1,4-benzoxazepin-4(5H)-yl)-9-methoxy-8-(2-methoxyethoxy)pyrimido[5,4-c]quinolin-4-amine] | 83.1 µM
